From patent publication US20120016000A1, “METHOD TO ASSAY PHOSPHOLIPID AND TRIGLYCERIDE TRANSFER ACTIVITY OF MICROSOMAL TRIGLYCERIDE TRANSFER PROTEIN” (priority 2010, published 2012)

Experiments:
[1] = target: T1, purified bovine liver MTP (Bos taurus, UniProt P55156); assay: Fluorescence phospholipid (NBD-PE) transfer activity assay of MTP; format: biochemical; details: dose-dependent inhibition, FIG. 5B
T1 construct: purified bovine liver MTP; from tissue; host or cells: bovine liver
T1 sequence (P55156 19-887 limits assumed): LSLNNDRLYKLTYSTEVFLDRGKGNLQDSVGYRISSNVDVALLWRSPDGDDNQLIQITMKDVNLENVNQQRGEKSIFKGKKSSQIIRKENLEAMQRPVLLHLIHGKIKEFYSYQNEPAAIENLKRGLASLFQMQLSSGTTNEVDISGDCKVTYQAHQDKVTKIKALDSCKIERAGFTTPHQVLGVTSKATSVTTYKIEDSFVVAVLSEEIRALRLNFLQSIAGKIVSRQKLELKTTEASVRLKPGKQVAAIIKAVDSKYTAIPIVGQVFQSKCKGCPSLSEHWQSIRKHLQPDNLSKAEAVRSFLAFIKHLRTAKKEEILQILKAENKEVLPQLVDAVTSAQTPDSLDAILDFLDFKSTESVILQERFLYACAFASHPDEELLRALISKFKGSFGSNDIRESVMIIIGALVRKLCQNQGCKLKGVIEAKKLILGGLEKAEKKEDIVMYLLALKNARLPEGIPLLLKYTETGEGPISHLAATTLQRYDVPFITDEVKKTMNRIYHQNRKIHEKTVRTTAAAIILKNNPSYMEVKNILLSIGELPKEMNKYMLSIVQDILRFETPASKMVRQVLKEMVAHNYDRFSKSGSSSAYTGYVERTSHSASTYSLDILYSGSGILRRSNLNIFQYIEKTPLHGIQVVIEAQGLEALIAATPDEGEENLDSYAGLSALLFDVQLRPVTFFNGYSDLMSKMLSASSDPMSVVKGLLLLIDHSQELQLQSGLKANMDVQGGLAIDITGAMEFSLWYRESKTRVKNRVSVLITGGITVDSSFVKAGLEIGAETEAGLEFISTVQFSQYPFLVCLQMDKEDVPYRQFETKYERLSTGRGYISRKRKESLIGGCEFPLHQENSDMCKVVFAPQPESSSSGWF
T1 sequence (P05307 21-510 partner): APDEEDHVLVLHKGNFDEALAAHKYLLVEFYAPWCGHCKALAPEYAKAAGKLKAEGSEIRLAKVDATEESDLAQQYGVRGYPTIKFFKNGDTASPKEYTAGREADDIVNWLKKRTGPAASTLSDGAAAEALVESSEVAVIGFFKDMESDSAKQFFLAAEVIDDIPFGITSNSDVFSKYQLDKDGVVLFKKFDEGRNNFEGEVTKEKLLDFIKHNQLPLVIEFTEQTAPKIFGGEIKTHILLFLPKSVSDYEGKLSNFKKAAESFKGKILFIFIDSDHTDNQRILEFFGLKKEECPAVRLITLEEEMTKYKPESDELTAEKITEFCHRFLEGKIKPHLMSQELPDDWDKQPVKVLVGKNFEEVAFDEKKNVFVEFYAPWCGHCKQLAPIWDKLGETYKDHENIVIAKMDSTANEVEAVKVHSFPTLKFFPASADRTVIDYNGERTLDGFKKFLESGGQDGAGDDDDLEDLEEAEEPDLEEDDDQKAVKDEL
Text: (§1) The present invention is directed to very selective, simple, rapid and sensitive fluorescence assays to measure triglyceride (NBD-TG) and phospholipid (NBD-PE) transfer by MTP. These assays have been modified and developed into a “mix and measure” format kit that is stable, user friendly, and consists of only two components: a master mix and purified MTP. The master mix contains all the ingredients necessary for MTP activity. In this assay, MTP transfers fluorescent lipids from donor to acceptor vesicles. Lipid fluorescence in these vesicles is mostly quenched. Unquenched fluorescence (˜0.05% of total fluorescence) is measured as background. During the transfer of fluorescent lipids by MTP, fluorescence is exposed to aqueous phase and detected by the Fluorimeter. These fluorescence measurements represent the amount being transferred. Inclusion of antagonist during these assays reduces increases in fluorescence and represents inhibition of the transfer activity. […]
(§2) Increasing amounts of DMSO (0-1%) had no significant effect on both triglyceride (FIG. 3A) and phospholipid (FIG. 3B) transfer activities of MTP. […] Evaluation of signal-to-noise ratio of assay across the entire 96-well plate: Fluorescence in the blank (n=48) and MTP (n=48) was used to determine the values of noise and signal, respectively. […]

[2] = target: T1, purified bovine liver MTP; assay: Fluorescence triglyceride (NBD-TG) transfer activity assay of MTP; format: biochemical; details: dose-dependent inhibition, FIG. 5A
Text: as §1, §2

[3] = guinea pigs; cited from earlier work
[4] = in vivo; cited from earlier work

For `O=C(Nc1ccc2c(c1)CCN(Cc1ncn[nH]1)C2)c1ccccc1-c1ccc(C(F)(F)F)cc1` [CP-346086], the IC50 [1] was 9.4 nM and the IC50 [2] was 0.33 nM.
In the case of `CCOC(=O)C(COC(=O)Cc1ccc(NC(=O)c2ccccc2-c2ccc(C(F)(F)F)cc2)c(C(=O)N(C)C)c1)(C(=O)OCC)c1ccccc1` [JTT-130], the hepatic triglyceride [3] is given as “without increasing hepatic triglyceride” and the “plasma triglyceride and LDL cholesterol” value [3] is given as “lower plasma triglyceride and LDL cholesterol”.
In the case of `COc1cccc(C(=O)Nc2ccc3c(c2)CCN(C(=O)Oc2ccccc2)C3)c1-c1ccc(C(F)(F)F)cc1` [SLx-4090], the plasma lipids [4] is listed as “lower plasma lipids”.
